Read-outs that look alike come from different tables or passages of the source.
Assays:
[1] = Pharmacokinetic evaluation in ICR mice after intravenous injection; assay type: in vivo; details: mouse; ICR male mice, 1.0 mg/kg intravenous, plasma
Protocol: A test compound (1.0 mg/kg) was administered to fasted ICR male mice via intravenous injection, and blood samples were collected at time points of 0.08, 0.25, 0.5, 1, 2, 4, 6, 8 and 24 h after the administration. Plasma sample was separated by centrifugation (8000 rpm) and stored at −80° C. until the sample was analyzed. Concentrations of the test compound in the plasma were determined by HPLC-MS/MS: the plasma was dispensed into appropriate tubes containing internal standard and methanol or acetonitrile. The tubes were mixed vigorously for 3 minutes to achieve deproteinization and then centrifuged at 8000 rpm for 5 minutes. The supernatant was transferred to an autosampler vial, injected into the chromatographic system, and quantified on MS/MS detector. Pharmacokinetic parameters including AUC0-4, Cmax, Tmax, t1/2, MRT, Cl and Vd were calculated using WinNonlin 6.3 software. Table 3 summarizes key PK parameters for test compounds (AUC(0-t): the area under the curve from time 0 to time t; AUC(0-∞): the area under the curve from time 0 to infinity; t1/2: Half-life; CL: clearance; C0: the concentration of drug in blood if the drug molecules enter the circulation and are distributed immediately (i.e., at time 0)).

human T cell = experiment: CD73 cellular assay (T cell stimulation assay: CellTiter-Glo proliferation and IFN-γ ELISA); assay type: cell-based; details: human T cells, anti-CD3/CD28, AMP + EHNA, 72 hours
Protocol: Day 2, human T cell seeding: (a) washing the coated plate (from Day 1) with sterilized PBS buffer (2×100 uL); (b) re-suspending T cells and adjusting cell density to 0.5×10^6 cells/mL with growth media (X-VIVO 15+1% Pen/strep+1% glutamine), and seeding 100 μL/well (50,000 cells/well) in 96-well plates; (c) diluting CD28 antibody for 8× working concentration (8 μg/mL) with growth media, giving 1 μg/mL of the final concentration, followed by addition of CD28 antibody (25 μL) to cell plate; incubating the plates under 5% CO2 at 37° C. for 60 min; (d) adding compound (25 μL, 8×dilution with growth media) to cell plate, and incubating the plates under 5% CO2 at 37° C. for 60 min; (e) adding AMP (25 μL) and EHNA (25 μL, 8×dilution with growth media) to cell plate; (f) incubating the plates under 5% CO2 at 37° C. for 72 hours.
Day 5, collecting cell growth media and testing cell proliferation: (a) centrifuging the cell plate (1,000 rpm) for 5 min; (b) harvesting 150 μL of the cell culture media from each well to 96 well plate, followed by measurement of IFN-r expression by ELISA test; (c) taking a portion of the cell culture supernatant for cytokine analysis, removing the remaining supernatant, followed by addition of fresh growth media (X-VIVO 15+1% Pen/strep+1% glutamine, 100 μL); (d) adding Celltiter-Glo solution (50 μL) into each well for the measurement of cell proliferation by: (e) incubating the plates at room temperature for 10 min on a shaker; (f) transferring 100 μL solution into 96-well white plate and taking the readout of the Celltiter-Glo data using a TECAN Reader.

[2] = molecular target: T1, Recombinant human 5′-nucleotidase (hCD73) (Homo sapiens, UniProt P21589); experiment: CD73 enzyme inhibition assay (recombinant hCD73, AMP substrate, phosphate detection); assay type: biochemical; details: 37° C. 20 min, absorbance 635 nm
T1 sequence (P21589 27-549): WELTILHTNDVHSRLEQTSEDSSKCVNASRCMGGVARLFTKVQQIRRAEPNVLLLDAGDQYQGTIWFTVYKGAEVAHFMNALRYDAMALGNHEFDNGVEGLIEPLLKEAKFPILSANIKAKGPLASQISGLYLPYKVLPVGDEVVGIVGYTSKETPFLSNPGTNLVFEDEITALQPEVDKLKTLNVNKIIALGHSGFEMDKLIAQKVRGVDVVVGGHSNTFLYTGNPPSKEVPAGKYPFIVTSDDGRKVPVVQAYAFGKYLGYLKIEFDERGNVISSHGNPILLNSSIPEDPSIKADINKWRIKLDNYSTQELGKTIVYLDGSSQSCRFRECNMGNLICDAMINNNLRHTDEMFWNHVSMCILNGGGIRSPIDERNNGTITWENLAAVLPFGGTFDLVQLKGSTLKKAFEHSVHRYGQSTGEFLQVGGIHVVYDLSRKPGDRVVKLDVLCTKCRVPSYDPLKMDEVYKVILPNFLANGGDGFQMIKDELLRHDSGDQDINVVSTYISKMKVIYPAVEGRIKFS
Protocol: Test compound solution preparation: Stock solution of a test compound was prepared in DMSO at 10 mM concentration. A series of preset 10-concentration solutions of a test compound were prepared by diluting the stock solution in 5-fold gradient dilution with DMSO.
Assay buffer (1×): […] Tris, 25 mM NaCl, 1 mM MgCl2, pH 7.5, 0.005% Tween-20 (freshly prepared, and ready for use).
An aliquot of 0.25 μL of compound solution or DMSO (blank control) was added to each test well of a micro well plate. Recombinant human 5′-nucleotidase (hCD73) was diluted to 1 nM in assay buffer; and an aliquot of 25 μL hCD73 (1 nM) solution was added to the corresponding wells of the plate. The contents of the well were well-mixed, and the plate was covered with sealing film, centrifuged at 1000 rpm for 30 sec., followed by incubation at room temperature for 15 min. AMP, the substrate, was diluted to 60 μM concentration in the assay buffer. To each reaction well was added 25 μL of AMP solution. After mixing well, the plate was covered with sealing film, centrifuged at 1000 rpm for 30 sec., and incubated at 37° C. for 20 min. The absorbance signal (end point) was measured on SPARK plate reader at 635 nm (See PiColorLock™ Gold Phosphate Detection System (Abcam) test kit for reference).
The reaction wells containing CD73 enzyme, substrate AMP and DMSO (no compound) were used as positive control, and the reaction wells containing substrate AMP and DMSO but no CD73 enzyme were used as negative control. The percent (%) inhibition at each concentration of compound was calculated based on and relative to the signal in the High and Low control wells contained within each assay plate. The High control wells were considered as 0% inhibition, and the low control wells, which didn't contain any compound but rather DMSO (final concentration=0.5%), as 100% inhibition. IC50 values were obtained using GraphPad Prism software.

[3] = read-out: EC50 CTG (CellTiter-Glo, cell proliferation)
[4] = read-out: EC50 IFN-γ (ELISA, indicator for T-cell activity)

| clearance [1] | IC50 [2] | SMILES | EC50 (human T cell; [3]) | EC50 (human T cell; [4]) |
| --- | --- | --- | --- | --- |
| 1.85 mL/min/kg | 1.08 nM | O=P(O)(O)CP(=O)(O)OC[C@H]1O[C@@H](n2cnc3c(N4CCC5(CCCCC5)C4)nc(Cl)nc32)[C@@H](O)C1O (some centres unmarked) [Compound b, reference compound] | 7.53 nM | 14.2 nM |
| 2.65 mL/min/kg | 0.47 nM | O=P(O)(O)CP(=O)(O)OC[C@H]1O[C@@H](n2cnc3c(N4CC5(CCc6ccccc65)C4)nc(Cl)nc32)[C@@H](O)C1O (stereo partly drawn) [d-1] | 3.13 nM | 1.45 nM |

From patent US20240024346A1, “CD73 INHIBITORS AND PHARMACEUTICAL USES THEREOF” (RISEN (SUZHOU) PHARMA TECH CO., LTD., priority 2020, published 2024)
